The text below walks through data of US20080103209A1, “Compounds And Methods For Treating Non-Inflammatory Pain Using Ppar Alpha Agonists” (The Regents of The University of California, priority 2004, published 2008).

Molecules are shown by their SMILES.

For the experiment, the target named is T1, PPARγ (Homo sapiens, UniProt P37231).
T1 construct: expressed in transfected cells
T1 sequence (P37231 1-505): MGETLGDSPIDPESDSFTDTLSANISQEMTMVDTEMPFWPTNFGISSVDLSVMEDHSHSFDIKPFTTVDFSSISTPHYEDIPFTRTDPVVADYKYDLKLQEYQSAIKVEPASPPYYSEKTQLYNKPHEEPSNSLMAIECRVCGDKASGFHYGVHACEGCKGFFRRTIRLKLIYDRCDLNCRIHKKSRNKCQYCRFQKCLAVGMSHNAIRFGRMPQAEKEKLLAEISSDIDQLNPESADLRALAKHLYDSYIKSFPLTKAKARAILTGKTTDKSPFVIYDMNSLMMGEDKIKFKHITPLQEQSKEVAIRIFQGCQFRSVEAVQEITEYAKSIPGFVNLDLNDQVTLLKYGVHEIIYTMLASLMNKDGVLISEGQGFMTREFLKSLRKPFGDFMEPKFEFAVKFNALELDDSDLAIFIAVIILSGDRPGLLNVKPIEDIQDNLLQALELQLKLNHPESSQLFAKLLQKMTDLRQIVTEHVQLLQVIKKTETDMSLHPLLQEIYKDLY
Description: PPARγ transactivation assay. The format is cell-based. To be noted: concentrations as high as 20 μM. The procedure:
Transactivation assays were performed as previously described [Fu et al., Nature 425:90-93 (2003)].

`CCCCCCCCCCCCCCCC(=O)NCCO` [PEA, palmitoylethanolamide]: the PPARγ activation entry was “did not activate”.
